Where two headings read alike, the source gives them in different places.
Columns and labels:
Assay type in all cases: cell-based, human
F-C fibroblasts = test: Matrix contraction by control fibroblasts after ALDH inhibition
From the text: (§1) Next the ability of F-PemI and F-PemU fibroblasts to organise matrix through matrix contraction was investigated. […] This diminished contractile profile was similar in F-PemI and F-PemU fibroblasts.
(§2) To find out whether ALDH1A3 was also contributing to this phenotypic contractility we looked at the contractile profiles of F-PemI, F-PemU and F-C fibroblasts after DEAB or disulfiram ALDH inhibition.

[1] = tested on: F-PemI and F-PemU fibroblasts; test: Collagen production of OcMMP fibroblasts after ALDH inhibition (collagen type I competitive ELISA)
Experimental: To investigate whether there was differential matrix production in OcMMP, primary conjunctival fibroblasts explanted from conjunctival tissue samples from OcMMP patients with (F-PemI) and without (F-PemU) and control (F-C) patients were analysed for their matrix production and secretion (see FIG. 2A).
To ascertain whether this enhanced collagen production was mediated by ALDH1A3, the collagen production profiles of F-PemI, F-PemU and F-C fibroblasts were assessed after ALDH inhibition with DEAB or disulfiram (see FIGS. 2B to 2E, where “+” and “−” indicate the presence or absence of DEAB/disulfiram respectively).
A competitive ELISA (MD Bioproducts, Zurich, Germany) method was used to quantify the matrix production from a monolayer of F-C, F-PemU and F-PemI fibroblasts. The competitive assay is a colormetric based immunoassay utilises a biotinylated polyclonal antibody to Collagen Type I and purified human collagen type I as an antigen. […]
Each experiment was carried out per manufacturer's instructions and performed with at least 4 experimental repeats and 3 biological repeats. […] Another method that has been noted for quantifying the level of collagen production in OcMMP fibroblasts is Q-PCR quantification of collagen type 1 mRNA expression post TGF-β induction (Razzaque et al., 2003, Investigative ophthalmology and visual science, 44: 3417-3423, 1616-1621 and 1998-2003). […]

[2] = tested on: F-PemI and F-PemU fibroblasts; test: Matrix contraction by OcMMP fibroblasts after ALDH inhibition
From the text: as §1, §2

[3] = tested on: F-PemI and F-PemU fibroblasts; test: Proliferation of OcMMP fibroblasts after ALDH inhibition
Experimental: The proliferative capacity of F-PemI, F-PemU and F-C fibroblasts was also assessed. […] The proliferative capacities of F-PemI and F-PemU were similar (see FIG. 4A).
To find out whether ALDH1A3 also mediates this anti-proliferative phenotype we monitored the proliferation of F-PemI, F-PemU and F-C fibroblasts after addition of DEAB or disulfiram.

[4] = tested on: F-PemI and F-PemU fibroblasts; test: Alpha-smooth muscle actin alignment under a stressed matrix
From the text: Finally to have an indication of the differentiation capacity of F-PemI and F-PemU fibroblasts, their expression and alignment of alpha-smooth muscle actin under a stressed matrix was investigated. F-PemI and F-PemU lack the ability to align their alpha-smooth muscle actin into stress fibers when compared to F-C fibroblasts. The diminished alignment of alpha-smooth muscle actin was similar in both F-PemI and F-PemU fibroblasts.
To elucidate whether ALDH1A3 is contributing to this impaired alignment of alpha-smooth muscle actin in F-PemI and F-PemU fibroblasts, their alpha-smooth muscle actin alignment was imaged after being treated with DEAB and disulfiram.

## CCN(CC)c1ccc(C=O)cc1 [DEAB, 4-(diethylamino)benzaldehyde]
F-C fibroblasts
  contractile profile of F-C fibroblasts: did not have any significant effects
[1]; 10^−7M
  F-PemI and F-PemU fibroblast collagen production: brought down to control cell levels
[1]; increasing concentrations
  F-PemI and F-PemU fibroblast collagen production: dose dependent and significant decrease
[2]; increasing concentrations
  contractility of F-PemI and F-PemU fibroblasts: increased the contractility of F-PemI and F-PemU fibroblasts in a dose dependent manner
[2]; lowest concentration of 10^−7M
  contraction of F-PemI and F-PemU fibroblasts: control cell levels of contraction
[3]
  proliferation of F-PemI and F-PemU fibroblasts: proliferating at a significantly enhanced rate
[3]; lowest concentration of 10^−7M
  proliferation of F-PemI and F-PemU fibroblasts: proliferated at similar level to F-C fibroblasts
[4]
  alignment of alpha-smooth muscle actin in F-PemI and F-PemU fibroblasts: markedly improved the alignment
